Columns and labels:
HuM2e antibody 23K12 = format: binding, human
[1] = tested on: anti-M2 human monoclonal antibody Z3G1; format: binding

Substance: 546 (SLLTEVETPIRNRWGCRCNDSSD; epitope peptide) [compound 546]
- Signal (peptides that bind to 23K21 and 8I10) (HuM2e antibody 23K12): 921
- Signal (peptides that show specific binding to Z3G1) [1]: 2257

Substance: 547 (SLLTETETPIRNEWGCRCNDSSD; epitope peptide) [compound 547]
- Signal (peptides that bind to 23K21 and 8I10) (HuM2e antibody 23K12): 919
- Signal (peptides that show specific binding to Z3G1) [1]: 1594

Substance: 549 (SLLTEVETFIRNEWGCRCNDSSD; epitope peptide) [compound 549]
- Signal (peptides that bind to 23K21 and 8I10) (HuM2e antibody 23K12): 916
- Signal (peptides that show specific binding to Z3G1) [1]: 2301

Substance: 551 (SLLTEVATPIRNEWGCRCNDSSD; epitope peptide) [compound 551]
- Signal (peptides that bind to 23K21 and 8I10) (HuM2e antibody 23K12): 914
- Signal (peptides that show specific binding to Z3G1) [1]: 2093

Substance: 552 (SLLTEVETPIRNEWGCYCNDSSD; epitope peptide) [compound 552]
- Signal (peptides that bind to 23K21 and 8I10) (HuM2e antibody 23K12): 913
- Signal (peptides that show specific binding to Z3G1) [1]: 2397

Substance: 553 (SLLTEVTTPIRNEWGCRCNDSSD; epitope peptide) [compound 553]
- Signal (peptides that bind to 23K21 and 8I10) (HuM2e antibody 23K12): 909
- Signal (peptides that show specific binding to Z3G1) [1]: 2102

Substance: 555 (SLLTEVETPIRNEWGCRCWDSSD; epitope peptide) [compound 555]
- Signal (peptides that bind to 23K21 and 8I10) (HuM2e antibody 23K12): 901
- Signal (peptides that bind to Z3G1) [1]: 2462

Substance: 556 (SLLTELETPIRNEWGCRCNDSSD; epitope peptide) [compound 556]
- Signal (peptides that bind to 23K21 and 8I10) (HuM2e antibody 23K12): 900
- Signal (peptides that show specific binding to Z3G1) [1]: 1380

Substance: 557 (MSCLTEVGCSLLTEV; epitope peptide) [compound 557]
- Signal (peptides that bind to 23K21 and 8I10) (HuM2e antibody 23K12): 899
- Signal (peptides that bind to Z3G1) [1]: 2506

Substance: 559 (SLLTEVETAIRNEWGCRCNDSSD; epitope peptide) [compound 559]
- Signal (peptides that bind to 23K21 and 8I10) (HuM2e antibody 23K12): 895
- Signal (peptides that show specific binding to Z3G1) [1]: 2415

Substance: 560 (SLLTEVETPIRNEWGCRCFDSSD; epitope peptide) [compound 560]
- Signal (peptides that bind to 23K21 and 8I10) (HuM2e antibody 23K12): 894
- Signal (peptides that bind to Z3G1) [1]: 2538

Substance: 562 (SLLTEVETPIRWEWGCRCNDSSD; epitope peptide) [compound 562]
- Signal (peptides that bind to 23K21 and 8I10) (HuM2e antibody 23K12): 890
- Signal (peptides that show specific binding to Z3G1) [1]: 2302

Substance: 563 (SLLTEVETPIRNEWGGRCNDSSD; epitope peptide) [compound 563]
- Signal (peptides that bind to 23K21 and 8I10) (HuM2e antibody 23K12): 887
- Signal (peptides that show specific binding to Z3G1) [1]: 2270

Substance: 564 (SLLTEVELPIRNEWGCRCNDSSD; epitope peptide) [compound 564]
- Signal (peptides that bind to 23K21 and 8I10) (HuM2e antibody 23K12): 886
- Signal (peptides that show specific binding to Z3G1) [1]: 2407

Substance: 565 (SLLTEVETPIRVEWGCRCNDSSD; epitope peptide) [compound 565]
- Signal (peptides that bind to 23K21 and 8I10) (HuM2e antibody 23K12): 884
- Signal (peptides that show specific binding to Z3G1) [1]: 2300

Substance: 566 (SLLTEVCTPIRNEWGCRCNDSSD; epitope peptide) [compound 566]
- Signal (peptides that bind to 23K21 and 8I10) (HuM2e antibody 23K12): 881
- Signal (peptides that show specific binding to Z3G1) [1]: 1210

Substance: 568 (SLLTEVETPIRNEWGCRCQDSSD; epitope peptide) [compound 568]
- Signal (peptides that bind to 23K21 and 8I10) (HuM2e antibody 23K12): 877
- Signal (peptides that bind to Z3G1) [1]: 2438

Substance: 570 (MCLLTEVGCSLLTEV; epitope peptide) [compound 570]
- Signal (peptides that bind to 23K21 and 8I10) (HuM2e antibody 23K12): 875
- Signal (peptides that bind to Z3G1) [1]: 2717

Substance: 571 (SLLTEVETPIRNLWGCRCNDSSD; epitope peptide) [compound 571]
- Signal (peptides that bind to 23K21 and 8I10) (HuM2e antibody 23K12): 870
- Signal (peptides that show specific binding to Z3G1) [1]: 2415

Substance: 572 (SLLTEVETPIRNEKGCRCNDSSD; epitope peptide) [compound 572]
- Signal (peptides that bind to 23K21 and 8I10) (HuM2e antibody 23K12): 868
- Signal (peptides that show specific binding to Z3G1) [1]: 2580

Substance: 573 (SLLTEVETPIRNEWGCRTNDSSD; epitope peptide) [compound 573]
- Signal (peptides that bind to 23K21 and 8I10) (HuM2e antibody 23K12): 867
- Signal (peptides that show specific binding to Z3G1) [1]: 2374

Substance: 575 (SLLTEVRTPIRNEWGCRCNDSSD; epitope peptide) [compound 575]
- Signal (peptides that bind to 23K21 and 8I10) (HuM2e antibody 23K12): 866
- Signal (peptides that show specific binding to Z3G1) [1]: 1024

Substance: 576 (SLLTEVETPIFNEWGCRCNDSSD; epitope peptide) [compound 576]
- Signal (peptides that bind to 23K21 and 8I10) (HuM2e antibody 23K12): 862
- Signal (peptides that show specific binding to Z3G1) [1]: 2176

Substance: 577 (SLLTEVETPIRNIWGCRCNDSSD; epitope peptide) [compound 577]
- Signal (peptides that bind to 23K21 and 8I10) (HuM2e antibody 23K12): 862
- Signal (peptides that show specific binding to Z3G1) [1]: 2490

Substance: 579 (SLLTEVETPIRNEWGCRWNDSSD; epitope peptide) [compound 579]
- Signal (peptides that bind to 23K21 and 8I10) (HuM2e antibody 23K12): 859
- Signal (peptides that bind to Z3G1) [1]: 2364

Substance: 580 (SLCTEVGCSLLTEV; epitope peptide) [compound 580]
- Signal (peptides that bind to 23K21 and 8I10) (HuM2e antibody 23K12): 858
- Signal (peptides that show specific binding to Z3G1) [1]: 2382

Substance: 581 (SLLTEVETYIRNEWGCRCNDSSD; epitope peptide) [compound 581]
- Signal (peptides that bind to 23K21 and 8I10) (HuM2e antibody 23K12): 857
- Signal (peptides that show specific binding to Z3G1) [1]: 2290

Substance: 582 (SLLTEVETPIRAEWGCRCNDSSD; epitope peptide) [compound 582]
- Signal (peptides that bind to 23K21 and 8I10) (HuM2e antibody 23K12): 856
- Signal (peptides that show specific binding to Z3G1) [1]: 2306

Substance: 583 (SLLTEVWTPIRNEWGCRCNDSSD; epitope peptide) [compound 583]
- Signal (peptides that bind to 23K21 and 8I10) (HuM2e antibody 23K12): 855
- Signal (peptides that show specific binding to Z3G1) [1]: 1889

Substance: 584 (SLLTEVETPIRNEWGCRRNDSSD; epitope peptide) [compound 584]
- Signal (peptides that bind to 23K21 and 8I10) (HuM2e antibody 23K12): 855
- Signal (peptides that show specific binding to Z3G1) [1]: 2383

Substance: 585 (SLLTEVETPIRLEWGCRCNDSSD; epitope peptide) [compound 585]
- Signal (peptides that bind to 23K21 and 8I10) (HuM2e antibody 23K12): 853
- Signal (peptides that show specific binding to Z3G1) [1]: 2468

Substance: 586 (SLLTEVETPIRNEWGCRCNISSD; epitope peptide) [compound 586]
- Signal (peptides that bind to 23K21 and 8I10) (HuM2e antibody 23K12): 851
- Signal (peptides that bind to Z3G1) [1]: 2517

Substance: 587 (SLLTEVETPIRCEWGCRCNDSSD; epitope peptide) [compound 587]
- Signal (peptides that bind to 23K21 and 8I10) (HuM2e antibody 23K12): 850
- Signal (peptides that show specific binding to Z3G1) [1]: 1956

Substance: 588 (SLLTEVETPIRNEWGCRCNCSSD; epitope peptide) [compound 588]
- Signal (peptides that bind to 23K21 and 8I10) (HuM2e antibody 23K12): 848
- Signal (peptides that bind to Z3G1) [1]: 2505

Substance: 592 (MSLCTEVGCSLLTEC; epitope peptide) [compound 592]
- Signal (peptides that bind to 23K21 and 8I10) (HuM2e antibody 23K12): 840
- Signal (peptides that bind to Z3G1) [1]: 1971

Substance: 593 (SLLTEVEIPIRNEWGCRCNDSSD; epitope peptide) [compound 593]
- Signal (peptides that bind to 23K21 and 8I10) (HuM2e antibody 23K12): 839
- Signal (peptides that show specific binding to Z3G1) [1]: 2365

Substance: 594 (SLLTEVQTPIRNEWGCRCNDSSD; epitope peptide) [compound 594]
- Signal (peptides that bind to 23K21 and 8I10) (HuM2e antibody 23K12): 838
- Signal (peptides that show specific binding to Z3G1) [1]: 2289

Substance: 595 (SLLTEVETPIRNEWGWRCNDSSD; epitope peptide) [compound 595]
- Signal (peptides that bind to 23K21 and 8I10) (HuM2e antibody 23K12): 838
- Signal (peptides that show specific binding to Z3G1) [1]: 2439

Substance: 596 (SLLTEVETPIRNEWFCRCNDSSD; epitope peptide) [compound 596]
- Signal (peptides that bind to 23K21 and 8I10) (HuM2e antibody 23K12): 837
- Signal (peptides that show specific binding to Z3G1) [1]: 2493

Substance: 597 (SLLTEVETGIRNEWGCRCNDSSD; epitope peptide) [compound 597]
- Signal (peptides that bind to 23K21 and 8I10) (HuM2e antibody 23K12): 835
- Signal (peptides that show specific binding to Z3G1) [1]: 2366

Substance: 598 (SLLTEVETPIRNEWGCRKNDSSD; epitope peptide) [compound 598]
- Signal (peptides that bind to 23K21 and 8I10) (HuM2e antibody 23K12): 835
- Signal (peptides that show specific binding to Z3G1) [1]: 2435

Substance: 599 (SLLTEVERPIRNEWGCRCNDSSD; epitope peptide) [compound 599]
- Signal (peptides that bind to 23K21 and 8I10) (HuM2e antibody 23K12): 834
- Signal (peptides that show specific binding to Z3G1) [1]: 2131

Substance: 600 (SLLTEVETPIRNEWGLRCNDSSD; epitope peptide) [compound 600]
- Signal (peptides that bind to 23K21 and 8I10) (HuM2e antibody 23K12): 831
- Signal (peptides that show specific binding to Z3G1) [1]: 2389

Substance: 602 (SLLTEVETEIRNEWGCRCNDSSD; epitope peptide) [compound 602]
- Signal (peptides that bind to 23K21 and 8I10) (HuM2e antibody 23K12): 828
- Signal (peptides that show specific binding to Z3G1) [1]: 2368

Substance: 605 (SLLTEVETPIRNMWGCRCNDSSD; epitope peptide) [compound 605]
- Signal (peptides that bind to 23K21 and 8I10) (HuM2e antibody 23K12): 820
- Signal (peptides that show specific binding to Z3G1) [1]: 2455

Substance: 606 (SLLTEVETQIRNEWGCRCNDSSD; epitope peptide) [compound 606]
- Signal (peptides that bind to 23K21 and 8I10) (HuM2e antibody 23K12): 819
- Signal (peptides that show specific binding to Z3G1) [1]: 2189

Substance: 607 (SLLTEVESPIRNEWGCRCNDSSD; epitope peptide) [compound 607]
- Signal (peptides that bind to 23K21 and 8I10) (HuM2e antibody 23K12): 817
- Signal (peptides that show specific binding to Z3G1) [1]: 2156

Substance: 608 (SLLTEIETPIRNEWGCRCNDSSD; epitope peptide) [compound 608]
- Signal (peptides that bind to 23K21 and 8I10) (HuM2e antibody 23K12): 816
- Signal (peptides that show specific binding to Z3G1) [1]: 2016

Substance: 609 (SLLTEVETHIRNEWGCRCNDSSD; epitope peptide) [compound 609]
- Signal (peptides that bind to 23K21 and 8I10) (HuM2e antibody 23K12): 816
- Signal (peptides that show specific binding to Z3G1) [1]: 2288

Substance: 610 (SLLTEVETDIRNEWGCRCNDSSD; epitope peptide) [compound 610]
- Signal (peptides that bind to 23K21 and 8I10) (HuM2e antibody 23K12): 813
- Signal (peptides that show specific binding to Z3G1) [1]: 2392

Substance: 611 (SLLTEVETRIRNEWGCRCNDSSD; epitope peptide) [compound 611]
- Signal (peptides that bind to 23K21 and 8I10) (HuM2e antibody 23K12): 813
- Signal (peptides that show specific binding to Z3G1) [1]: 2159

Substance: 612 (SLLTEVETPIRNEWGCRCIDSSD; epitope peptide) [compound 612]
- Signal (peptides that bind to 23K21 and 8I10) (HuM2e antibody 23K12): 812
- Signal (peptides that bind to Z3G1) [1]: 2450

Substance: 613 (SLLTEVETPIRNEWGCRCNHSSD; epitope peptide) [compound 613]
- Signal (peptides that bind to 23K21 and 8I10) (HuM2e antibody 23K12): 812
- Signal (peptides that bind to Z3G1) [1]: 2439

Substance: 614 (SLLTEVETVIRNEWGCRCNDSSD; epitope peptide) [compound 614]
- Signal (peptides that bind to 23K21 and 8I10) (HuM2e antibody 23K12): 810
- Signal (peptides that show specific binding to Z3G1) [1]: 2264

Substance: 615 (SLLTEVETPIRNEWGCDCNDSSD; epitope peptide) [compound 615]
- Signal (peptides that bind to 23K21 and 8I10) (HuM2e antibody 23K12): 810
- Signal (peptides that show specific binding to Z3G1) [1]: 2207

Substance: 616 (SLLTEVETPIRNPWGCRCNDSSD; epitope peptide) [compound 616]
- Signal (peptides that bind to 23K21 and 8I10) (HuM2e antibody 23K12): 808
- Signal (peptides that show specific binding to Z3G1) [1]: 2288

Source: patent US8932597B2 (priority 2008, dated 2015)
